Test results published in patent publication US20060069132A1, “Azolecarboxamide herbicides” (priority 2004, published 2006).

What was measured:
[1] = system: morningglory; test: Test A pre-/postemergence herbicide test; format: in vivo, Ipomoea spp.; conditions: for Plant response rating, Morningglory: Postemergence; for Morningglory plant response rating: Preemergence
How it was run: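 Pre: seeded sandy loam, directed soil spray, compound in non-phytotoxic solvent + surfactant. Post: 1–2-leaf plants (2–10 cm), sprayed to runoff. Greenhouse ~10 d; visual injury vs untreated, 0–100 scale.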

[2] = system: yellow nutsedge; test: Test C pre-/postemergence herbicide test; format: in vivo, Cyperus esculentus
How it was run: (§1)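 Visual injury scores run from 0 (no effect) to 100 (complete control), assessed relative to untreated controls 12 to 14 days after treatment in the greenhouse. Chemicals were formulated in a non-phytotoxic solvent mixture with surfactant and applied to soil after planting or to emerged plants at the 1- to 4-leaf stage.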

[3] = system: eastern black nightshade; test: Test C pre-/postemergence herbicide test; format: in vivo, Solanum ptycanthum; conditions: preemergence
Text: Seeds of plant species selected from bermudagrass (Cynodon dactylon (L.) Pers.), Surinam grass (Urochloa decumbens (Staph) R. D. Webster, previously named Brachiaria decumbens Stapf), cocklebur (Xanthium strumarium L.), corn (Zea mays L.), large crabgrass (Digitaria sanguinalis (L.) Scop.), woolly cupgrass (Eriochloa villosa (Thunb.) Kunth), giant foxtail (Setaria faberi Herrm.), goosegrass (Eleusine indica (L.) Gaertn.), johnsongrass (Sorghum halepense (L.) Pers.), kochia (Kochia scoparia (L.) Schrad.), lambsquarters (Chenopodium album L.), morningglory (Ipomoea coccinea L.), eastern black nightshade (Solanum ptycanthum Dunal), yellow nutsedge (Cyperus esculentus L.), pigweed (Amaranthus retroflexus L.), common ragweed (Ambrosia elatior L.), soybean (Glycine max (L.) Merr.), common (oilseed) sunflower (Helianthus annuus L.) and velvetleaf (Abutilon theophrasti Medik.) were planted and treated preemergence with test chemicals formulated in a non-phytotoxic solvent mixture which included a surfactant.
At the same time, plants selected from these crop and weed species and also winter barley (Hordeum vulgare L.), blackgrass (Alopecurus myosuroides Huds.), canarygrass (Phalaris minor Retz.), chickweed (Stellaria media (L.) Vill.), downy bromegrass (Bromus tectorum L.), green foxtail (Setaria viridis (L.) Beauv.), Italian ryegrass (Lolium multiflorum Lam.), wheat (Triticum aestivum L.), wild oat (Avenafatua L.) and windgrass (Apera spica-venti (L.) Beauv.) were treated with postemergence applications of some of the test chemicals formulated in the same manner. Plants ranged in height from 2 to 18 cm (1- to 4-leaf stage) for postemergence treatments. Plant species in the flooded paddy test consisted of rice (Oryza sativa), smallflower umbrella sedge (Cyperus difformis L.), ducksalad (Heteranthera limosa (Sw.) Willd.) and barnyardgrass (Echinochloa crus-galli (L.) Beauv.) grown to the 2-leaf stage for testing. Treated plants and controls were maintained in a greenhouse for 12 to 14 days, after which time all species were compared to controls and visually evaluated. Plant response ratings, summarized in Table C, are based on a scale of 0 to 100 where 0 is no effect and 100 is complete control. A dash (-) response means no test result.

[4] = system: goosegrass; test: Test C pre-/postemergence herbicide test; format: in vivo, Eleusine indica
How it was run: as §1

[5] = system: soybean; test: Test C pre-/postemergence herbicide test; format: in vivo, Glycine max
How it was run: as §1

[6] = system: smallflower umbrella sedge; test: Test C flooded paddy test; format: in vivo, Cyperus difformis
[7] = system: rice; test: Test C flooded paddy test; format: in vivo, Oryza sativa
How it was run: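 Plants were grown to the 1- to 4-leaf stage (2–18 cm) and then treated postemergence, or grown to the 2-leaf stage for the flooded paddy test. They were held in a greenhouse for 12 to 14 days and then scored by eye against controls, where 0 is no effect and 100 is complete control.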

[8] = 500 g ai/ha, 0 to 100 scale, 0 no effect, 100 complete control
[9] = 2000 g ai/ha, 0 to 100 scale, 0 no effect, 100 complete control
[10] = 500 g ai/ha, visual rating, 0 to 100 scale (0 no effect, 100 complete control)
[11] = 31 g ai/ha, preemergence, scale 0 to 100
[12] = 125 g ai/ha, scale 0 (no effect) to 100 (complete control), visual, 12 to 14 days, preemergence
[13] = postemergence, 125 g ai/ha, scale 0 to 100
[14] = postemergence, 62 g ai/ha, scale 0 to 100
[15] = 125 g ai/ha, scale 0 (no effect) to 100 (complete control), visual, 12 to 14 days
[16] = Postemergence, 125 g ai/ha, scale 0 to 100, 0 no effect, 100 complete control
[17] = 250 g ai/ha, scale 0 to 100 (0 no effect, 100 complete control), visual, 12 to 14 days, preemergence
[18] = Postemergence, 250 g ai/ha, scale 0 to 100, 0 no effect, 100 complete control
[19] = 62 g ai/ha, preemergence, scale 0 to 100
[20] = 250 g ai/ha, scale 0-100, preemergence
[21] = 500 g ai/ha, scale 0 to 100 (0 no effect, 100 complete control), visual, 12 to 14 days, preemergence
[22] = 125 g ai/ha, scale 0 to 100 (0 no effect, 100 complete control)
[23] = 250 g ai/ha, scale of 0 to 100, 0 is no effect, 100 is complete control
[24] = 500 g ai/ha, visual rating after 12 to 14 days, scale 0 to 100 (0 no effect, 100 complete control)

Question: With CCNC(=O)c1cccc(NC(=O)c2cc(C(C)(C)C)nn2CCF)c1 [Compound 35] as the compound, how does the “Plant response rating, Morningglory” value [1, 8] read?
Answer: 10

Question: What about the “Plant response rating, Morningglory” value [1, 9] of the same compound?
Answer: 10

Question: What about the “Morningglory plant response rating” value [1, 10] of the same compound?
Answer: 25

Question: And the “Morningglory plant response rating” value [1, 9]?
Answer: 85

Question: And the “Plant response rating, Nutsedge, Yellow” value ([2]; 16 g ai/ha, scale 0 to 100, last section of Table C, preemergence)?
Answer: 0

Question: What about the “Plant response rating, Nutsedge, Yellow” value [2, 11] of the same compound?
Answer: 0

Question: And the “Plant response rating (0 = no effect, 100 = complete control), Nutsedge, Yellow” value ([2]; 62 g ai/ha, preemergence)?
Answer: 0

Question: And the “Plant response rating, Nutsedge, Yellow” value [2, 12]?
Answer: 0

Question: And the “Plant response rating, Nutsedge, Yellow” value [2, 13]?
Answer: 0

Question: And the “Plant response rating, Nutsedge, Yellow” value [2, 14]?
Answer: 0

Question: What about the “Plant response rating, Nightshade” value ([3]; 31 g ai/ha, scale 0 to 100) of the same compound?
Answer: 70

Question: What about the “Plant response rating, Nightshade” value [3, 15] of the same compound?
Answer: 90

Question: And the “Plant response rating, Goosegrass” value [4, 11]?
Answer: 20

Question: What about the “Plant response rating (0 = no effect, 100 = complete control), Goosegrass” value ([4]; 62 g ai/ha, preemergence) of the same compound?
Answer: 30

Question: What about the “Plant response rating, Goosegrass” value [4, 12] of the same compound?
Answer: 70

Question: What about the “Plant response rating, Goosegrass” value [4, 16] of the same compound?
Answer: 50

Question: And the “Plant response rating, Goosegrass” value [4, 14]?
Answer: 40

Question: And the “Plant response rating, Soybean” value [5, 11]?
Answer: 0

Question: What about the “Plant response rating (0 = no effect, 100 = complete control), Soybean” value ([5]; 62 g ai/ha, preemergence) of the same compound?
Answer: 0

Question: And the “Plant response rating, Soybean” value [5, 12]?
Answer: 0

Question: What about the “Plant response rating, Soybean” value [5, 13] of the same compound?
Answer: 90

Question: And the “Plant response rating, Soybean” value [5, 14]?
Answer: 90

Question: CCn1nc(C(C)(C)C)cc1C(=O)Nc1cccc(C(=O)NC2CC2)c1 [Compound 44] was tested. Which “Plant response rating, Morningglory” value [1, 8] did it give?
Answer: 15

Question: And the “Plant response rating, Morningglory” value [1, 9]?
Answer: 45

Question: What about the “Morningglory plant response rating” value [1, 10] of the same compound?
Answer: 10

Question: And the “Morningglory plant response rating” value [1, 9]?
Answer: 30

Question: And the “Plant response rating (0 = no effect, 100 = complete control), Nutsedge, Yellow” value ([2]; 62 g ai/ha, preemergence)?
Answer: 0

Question: And the “Plant response rating, Nutsedge, Yellow” value [2, 12]?
Answer: 0

Question: What about the “Plant response rating, Nutsedge, Yellow” value [2, 17] of the same compound?
Answer: 0

Question: And the “Plant response rating, Nutsedge, Yellow” value [2, 18]?
Answer: 20

Question: What about the “Plant response rating, Nutsedge, Yellow” value [2, 14] of the same compound?
Answer: 20

Question: And the “Plant response rating (0 = no effect, 100 = complete control), Nightshade” value ([3]; 62 g ai/ha)?
Answer: 80

Question: And the “Plant response rating, Nightshade” value [3, 15]?
Answer: 90

Question: What about the “Plant response rating, Nightshade” value ([3]; 250 g ai/ha, scale 0 to 100 (0 no effect, 100 complete control), visual, 12 to 14 days) of the same compound?
Answer: 100

Question: And the “Plant response rating (0 = no effect, 100 = complete control), Goosegrass” value ([4]; 62 g ai/ha, preemergence)?
Answer: 10

Question: And the “Plant response rating, Goosegrass” value [4, 12]?
Answer: 30

Question: What about the “Plant response rating, Goosegrass” value [4, 17] of the same compound?
Answer: 50

Question: What about the “Plant response rating, Goosegrass” value [4, 16] of the same compound?
Answer: 40

Question: What about the “Plant response rating, Goosegrass” value [4, 18] of the same compound?
Answer: 50

Question: What about the “Plant response rating, Goosegrass” value [4, 14] of the same compound?
Answer: 40

Question: And the “Plant response rating (0 = no effect, 100 = complete control), Soybean” value ([5]; 62 g ai/ha, preemergence)?
Answer: 0

Question: And the “Plant response rating, Soybean” value [5, 12]?
Answer: 10

Question: And the “Plant response rating, Soybean” value [5, 17]?
Answer: 10

Question: What about the “Plant response rating, Soybean” value [5, 18] of the same compound?
Answer: 100

Question: And the “Plant response rating, Soybean” value [5, 14]?
Answer: 100

Question: Which results are given for C=CCNC(=O)c1cccc(NC(=O)c2nn(C(C)C)nc2CC)c1 [Compound 382]?
Answer: Plant response rating, Nutsedge, Yellow [2, 19]: 0; Plant response rating (0 = no effect, 100 = complete control), Nutsedge, Yellow ([2]; 125 g ai/ha, preemergence): 0; Plant response rating, Nutsedge, Yellow [2, 20]: 25; Plant response rating, Nutsedge, Yellow [2, 21]: 60; Plant response rating, Nightshade ([3]; 62 g ai/ha, scale 0 to 100): 95; Plant response rating, Nightshade ([3]; 250 g ai/ha, scale 0-100): 95; Plant response rating, Nightshade ([3]; 500 g ai/ha, scale 0 to 100 (0 no effect, 100 complete control), visual, 12 to 14 days): 100; Sedge, Umbrella plant response rating ([6]; 62 g ai/ha, scale 0 to 100): 75; Sedge, Umbrella plant response rating [6, 22]: 80; Sedge, Umbrella plant response rating [6, 23]: 85; Plant response rating, Sedge, Umbrella [6, 24]: 90; Plant response rating, Goosegrass [4, 19]: 75; Plant response rating (0 = no effect, 100 = complete control), Goosegrass ([4]; 125 g ai/ha, preemergence): 90; Plant response rating, Goosegrass [4, 20]: 95; Plant response rating, Goosegrass [4, 21]: 100; Rice plant response rating ([7]; 62 g ai/ha, scale 0 to 100): 20; Rice plant response rating [7, 22]: 55; Rice plant response rating [7, 23]: 70; Plant response rating, Rice [7, 24]: 75; Plant response rating, Soybean [5, 19]: 100; Plant response rating (0 = no effect, 100 = complete control), Soybean ([5]; 125 g ai/ha, preemergence): 100; Plant response rating, Soybean [5, 20]: 100; Plant response rating, Soybean [5, 21]: 100
